# Source: patent US20260297070A1, “CYCLIC [COMPOUND LEFT OUT] WRN INHIBITORS” (Nimbus Wadjet, Inc., priority 2023, published 2026)
# Target: T1, human Werner helicase (WRN-BV08, Uniprot Q14191, amino acids 517-1235 with L1074F point mutation) (Homo sapiens, UniProt Q14191, L1074F)
# T1 construct: Uniprot Q14191, amino acids 517-1235 with L1074F point mutation; TEV-cleavable 8×His (C, cleaved yes); made in house; host or cells: Sf9 insect cells (baculovirus)
# Test: WRN (BV08) ADP-Glo Assay
# Type: biochemical
# Details: 0.15 nM WRN, 5 μM ATP, 0.1 nM DNA duplex, 15 min preincubation, 60 min at 25° C., pH 7.5, 1% DMSO; read-out: ADP-Glo_hWRN_IC50
# In short: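 0.15 nM WRN (aa 517-1235, L1074F, Sf9-expressed, tag cleaved) preincubated 15 min at 25 °C with compound, then 5 μM ATP and 0.1 nM DNA duplex added for 60 min. Buffer: 20 mM Bicine pH 7.5, 1 mM MgCl2, 10 mM KCl, 1 mM TCEP; 1% DMSO. ADP-Glo luminescence; IC50 by 4-parameter fit.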
# T1 sequence (Q14191 with tags, fused parts or gaps L1074F limits assumed): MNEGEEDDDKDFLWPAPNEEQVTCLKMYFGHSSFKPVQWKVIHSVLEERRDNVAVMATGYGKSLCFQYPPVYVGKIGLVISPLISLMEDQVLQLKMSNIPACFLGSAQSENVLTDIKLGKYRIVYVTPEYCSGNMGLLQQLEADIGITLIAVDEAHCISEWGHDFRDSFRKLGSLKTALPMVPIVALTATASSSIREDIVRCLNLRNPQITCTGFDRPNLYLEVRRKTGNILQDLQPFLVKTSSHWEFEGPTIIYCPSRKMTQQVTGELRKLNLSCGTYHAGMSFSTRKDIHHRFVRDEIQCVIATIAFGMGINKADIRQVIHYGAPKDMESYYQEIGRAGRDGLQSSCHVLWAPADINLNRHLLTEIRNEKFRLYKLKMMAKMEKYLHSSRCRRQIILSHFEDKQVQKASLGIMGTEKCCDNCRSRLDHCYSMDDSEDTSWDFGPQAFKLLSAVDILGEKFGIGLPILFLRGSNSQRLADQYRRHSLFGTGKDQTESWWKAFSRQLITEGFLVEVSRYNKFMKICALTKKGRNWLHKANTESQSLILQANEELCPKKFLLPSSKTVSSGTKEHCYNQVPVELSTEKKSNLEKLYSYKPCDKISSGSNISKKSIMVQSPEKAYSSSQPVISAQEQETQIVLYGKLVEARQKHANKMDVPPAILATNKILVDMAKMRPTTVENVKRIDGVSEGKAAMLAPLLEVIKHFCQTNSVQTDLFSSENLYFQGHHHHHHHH
row,SMILES,IC50
1,"COC(C(=O)N(Cc1ccnc(C(C)(C)O)c1)C1C=CS(=O)(=O)C1)c1ccc(C(F)(F)F)cc1 (centres unmarked) [I-209, N-(1,1-dioxo-2,3-dihydro-1lambda6-thiophen-3-yl)-N-{[2-(2-hydroxypropan-2-yl)pyridin-4-yl]methyl}-2-methoxy-2-[4-(trifluoromethyl)phenyl]acetamide]",0.5 to 5 µM
2,"O=C(Cc1ccc(-n2cccc2)cc1)N(Cc1ccc2ccccc2n1)C1C=CS(=O)(=O)C1 (centres unmarked) [I-210, N-(1,1-dioxo-2,3-dihydro-1lambda6-thiophen-3-yl)-2-[4-(1H-pyrrol-1-yl)phenyl]-N-[(quinolin-2-yl)methyl]acetamide]",0.5 to 5 µM
3,"C#CCCCC(=O)N1CCN(Cc2ccc(CN(C(=O)Cc3ccc(-n4cccc4)cc3F)C3C=CS(=O)(=O)C3)cc2)CC1 (centres unmarked) [I-211, N-(1,1-dioxo-2,3-dihydro-1lambda6-thiophen-3-yl)-2-[2-fluoro-4-(1H-pyrrol-1-yl)phenyl]-N-[(4-{[4-(hex-5-ynoyl)piperazin-1-yl]methyl}phenyl)methyl]acetamide]",0.5 to 5 µM
4,"COc1cc(CN(C(=O)C(C)c2ccc(-n3cccc3)cc2)C2C=CS(=O)(=O)C2)ccn1 (centres unmarked) [I-212, N-(1,1-dioxo-2,3-dihydro-1lambda6-thiophen-3-yl)-N-[(2-methoxypyridin-4-yl)methyl]-2-[4-(1H-pyrrol-1-yl)phenyl]propanamide]",0.5 to 5 µM
5,"C#CCCCC(=O)N1CCN(c2ccc(CN(C(=O)Cc3ccc(-n4cccc4)cc3F)C3C=CS(=O)(=O)C3)cc2)CC1 (centres unmarked) [I-213, N-(1,1-dioxo-2,3-dihydro-1lambda6-thiophen-3-yl)-2-[2-fluoro-4-(1H-pyrrol-1-yl)phenyl]-N-({4-[4-(hex-5-ynoyl)piperazin-1-yl]phenyl}methyl)acetamide]",0.5 to 5 µM
6,"O=C(Cc1ccc(-n2cccc2)cc1)N(Cc1ccnc(OC(F)F)c1)C1C=CS(=O)(=O)C1 (centres unmarked) [I-215, N-{[2-(difluoromethoxy)pyridin-4-yl]methyl}-N-(1,1-dioxo-2,3-dihydro-1lambda6-thiophen-3-yl)-2-[4-(1H-pyrrol-1-yl)phenyl]acetamide]",0.5 to 5 µM
7,"CCC(C)c1ccc(CC(=O)N(Cc2ccncc2)C2C=CS(=O)(=O)C2)cc1 (centres unmarked) [I-216, 2-[4-(butan-2-yl)phenyl]-N-(1,1-dioxo-2,3-dihydro-1lambda6-thiophen-3-yl)-N-[(pyridin-4-yl)methyl]acetamide]",5 to 10 µM
8,"O=C(Cc1ccc(C2CCCC2)cc1)N(Cc1ccncc1)C1C=CS(=O)(=O)C1 (centres unmarked) [I-217, 2-(4-cyclopentylphenyl)-N-(1,1-dioxo-2,3-dihydro-1lambda6-thiophen-3-yl)-N-[(pyridin-4-yl)methyl]acetamide]",0.5 to 5 µM
9,"O=C(C(C(=O)N(Cc1ccncc1)C1C=CS(=O)(=O)C1)c1ccc(-c2ccc(F)cc2)cc1)N1CCOCC1 (centres unmarked) [I-218, N-(1,1-dioxo-2,3-dihydro-1lambda6-thiophen-3-yl)-2-{4′-fluoro-[1,1′-biphenyl]-4-yl}-3-(morpholin-4-yl)-3-oxo-N-[(pyridin-4-yl)methyl]propanamide]",5 to 10 µM
10,"COc1ccc(CN(C(=O)Cc2ccc(-n3cccc3)cc2)C2C=CS(=O)(=O)C2)cc1 (centres unmarked) [I-219, N-(1,1-dioxo-2,3-dihydro-1lambda6-thiophen-3-yl)-N-[(4-methoxyphenyl)methyl]-2-[4-(1H-pyrrol-1-yl)phenyl]acetamide]",5 to 10 µM
11,"O=C(Cc1ccc2cc(Br)ccc2c1)N(Cc1ccncc1)C1C=CS(=O)(=O)C1 (centres unmarked) [I-220, 2-(6-bromonaphthalen-2-yl)-N-(1,1-dioxo-2,3-dihydro-1lambda6-thiophen-3-yl)-N-[(pyridin-4-yl)methyl]acetamide]",5 to 10 µM
12,"O=C(Cc1ccc(-n2cccc2)cc1)N(Cc1cccc(F)c1F)C1C=CS(=O)(=O)C1 (centres unmarked) [I-221, N-[(2,3-difluorophenyl)methyl]-N-(1,1-dioxo-2,3-dihydro-1lambda6-thiophen-3-yl)-2-[4-(1H-pyrrol-1-yl)phenyl]acetamide]",0.5 to 5 µM
13,"O=C(Cc1ccc(-n2cccc2)cc1)N(Cc1ccc2ncccc2c1)C1C=CS(=O)(=O)C1 (centres unmarked) [I-222, N-(1,1-dioxo-2,3-dihydro-1lambda6-thiophen-3-yl)-2-[4-(1H-pyrrol-1-yl)phenyl]-N-[(quinolin-6-yl)methyl]acetamide]",5 to 10 µM
14,"CC(C)(O)c1cc(CN(C(=O)C2Cc3cc(-c4ccc(F)cc4)ccc32)C2C=CS(=O)(=O)C2)ccn1 (centres unmarked) [I-223, N-(1,1-dioxo-2,3-dihydro-1lambda6-thiophen-3-yl)-3-(4-fluorophenyl)-N-{[2-(2-hydroxypropan-2-yl)pyridin-4-yl]methyl}bicyclo[4.2.0]octa-1,3,5-triene-7-carboxamide]",5 to 10 µM
15,"Cc1cccn1-c1ccc(CC(=O)N(Cc2cccnn2)C2C=CS(=O)(=O)C2)c(F)c1 (centres unmarked) [I-224, N-(1,1-dioxo-2,3-dihydro-1lambda6-thiophen-3-yl)-2-[2-fluoro-4-(2-methyl-1H-pyrrol-1-yl)phenyl]-N-[(pyridazin-3-yl)methyl]acetamide]",5 to 10 µM
16,"O=C(Cc1ccc(-n2cccc2)cc1)N(Cc1ccc2c(c1)OCO2)C1C=CS(=O)(=O)C1 (centres unmarked) [I-225, N-[(2H-1,3-benzodioxol-5-yl)methyl]-N-(1,1-dioxo-2,3-dihydro-1lambda6-thiophen-3-yl)-2-[4-(1H-pyrrol-1-yl)phenyl]acetamide]",5 to 10 µM
17,"Cn1ncc2cc(CN(C(=O)Cc3ccc(-n4cccc4)cc3)C3C=CS(=O)(=O)C3)ccc21 (centres unmarked) [I-226, N-(1,1-dioxo-2,3-dihydro-1lambda6-thiophen-3-yl)-N-[(1-methyl-1H-indazol-5-yl)methyl]-2-[4-(1H-pyrrol-1-yl)phenyl]acetamide]",5 to 10 µM
18,"Cc1cc(-c2ccc(F)cc2)ccc1CC(=O)N(Cc1ccncc1)C1C=CS(=O)(=O)C1 (centres unmarked) [I-227, N-(1,1-dioxo-2,3-dihydro-1lambda6-thiophen-3-yl)-2-{4′-fluoro-3-methyl-[1,1′-biphenyl]-4-yl}-N-[(pyridin-4-yl)methyl]acetamide]",5 to 10 µM
19,"O=C(Cc1ccc(-n2cccc2)cc1)N(Cc1ccncc1Cl)C1C=CS(=O)(=O)C1 (centres unmarked) [I-228, N-[(3-chloropyridin-4-yl)methyl]-N-(1,1-dioxo-2,3-dihydro-1lambda6-thiophen-3-yl)-2-[4-(1H-pyrrol-1-yl)phenyl]acetamide]",5 to 10 µM
20,"C#CCCCC(=O)N1CCN(C(=O)c2ccc(CN(C(=O)Cc3ccc(-n4cccc4)cc3F)C3C=CS(=O)(=O)C3)cc2)CC1 (centres unmarked) [I-229, N-(1,1-dioxo-2,3-dihydro-1lambda6-thiophen-3-yl)-2-[2-fluoro-4-(1H-pyrrol-1-yl)phenyl]-N-({4-[4-(hex-5-ynoyl)piperazine-1-carbonyl]phenyl}methyl)acetamide]",5 to 10 µM
21,"CC(C)(O)c1cc(CN(C(=O)Cc2ccc(S(F)(F)(F)(F)F)cc2)[C@H]2C=CS(=O)(=O)C2)ccn1 [I-230, N-[(3S)-1,1-dioxo-2,3-dihydro-1lambda6-thiophen-3-yl]-N-{[2-(2-hydroxypropan-2-yl)pyridin-4-yl]methyl}-2-[4-(pentafluoro-lambda6-sulfanyl)phenyl]acetamide]",0.5 to 5 µM
22,"O=C1Nc2cc(C(F)(F)F)ccc2SC1CC(=O)N(Cc1ccncc1)C1C=CS(=O)(=O)C1 (centres unmarked) [I-231, N-(1,1-dioxo-2,3-dihydro-1lambda6-thiophen-3-yl)-2-[3-oxo-6-(trifluoromethyl)-3,4-dihydro-2H-1,4-benzothiazin-2-yl]-N-[(pyridin-4-yl)methyl]acetamide]",5 to 10 µM
23,"O=C(Cc1ccc(-n2cccc2)cc1)N(Cc1cccc(-n2cccn2)c1)C1C=CS(=O)(=O)C1 (centres unmarked) [I-232, N-(1,1-dioxo-2,3-dihydro-1lambda6-thiophen-3-yl)-N-{[3-(1H-pyrazol-1-yl)phenyl]methyl}-2-[4-(1H-pyrrol-1-yl)phenyl]acetamide]",5 to 10 µM
24,"O=C(C1Cc2cc(-n3cccc3)ccc21)N(Cc1ccncc1)C1C=CS(=O)(=O)C1 (centres unmarked) [I-233, N-(1,1-dioxido-2,3-dihydrothiophen-3-yl)-N-(pyridin-4-ylmethyl)-3-(1H-pyrrol-1-yl)bicyclo[4.2.0]octa-1(6),2,4-triene-7-carboxamide]",5 to 10 µM
25,"COc1cccc(CN(C(=O)Cc2ccc(-n3cccc3)cc2)C2C=CS(=O)(=O)C2)c1 (centres unmarked) [I-234, N-(1,1-dioxo-2,3-dihydro-1lambda6-thiophen-3-yl)-N-[(3-methoxyphenyl)methyl]-2-[4-(1H-pyrrol-1-yl)phenyl]acetamide]",5 to 10 µM
26,"O=C(Cc1ccc(C(F)(F)F)c(F)c1)N(Cc1ccncc1)C1C=CS(=O)(=O)C1 (centres unmarked) [I-236, N-(1,1-dioxo-2,3-dihydro-1lambda6-thiophen-3-yl)-2-[3-fluoro-4-(trifluoromethyl)phenyl]-N-[(pyridin-4-yl)methyl]acetamide]",5 to 10 µM
27,"C#CCCCC(=O)N1CCN(c2ccc(CN(C(=O)Cc3ccc(-n4cccc4)cc3)C3C=CS(=O)(=O)C3)cc2)CC1 (centres unmarked) [I-238, N-(1,1-dioxo-2,3-dihydro-1lambda6-thiophen-3-yl)-N-({4-[4-(hex-5-ynoyl)piperazin-1-yl]phenyl}methyl)-2-[4-(1H-pyrrol-1-yl)phenyl]acetamide]",0.5 to 5 µM
28,"O=C(Cc1ccc(-n2cccc2)cc1)N(Cc1ccncc1)C1C=CS(=O)(=O)C1 (centres unmarked) [I-239, N-(1,1-dioxo-2,3-dihydro-1lambda6-thiophen-3-yl)-N-[(pyridin-4-yl)methyl]-2-[4-(1H-pyrrol-1-yl)phenyl]acetamide]",5 to 10 µM
29,"COc1cc(CN(C(=O)CCc2c[nH]c3cc(Cl)ccc23)C2C=CS(=O)(=O)C2)ccn1 (centres unmarked) [I-240, 3-(6-chloro-1H-indol-3-yl)-N-(1,1-dioxo-2,3-dihydro-1lambda6-thiophen-3-yl)-N-[(2-methoxypyridin-4-yl)methyl]propanamide]",5 to 10 µM
